Tested on: patient experiencing radiation induced enteritis
Test: Administration of rifaximin to a patient experiencing radiation induced enteritis
Type: in vivo, human
Details: no data shown
From the text: The recognition of bacteria as primarily causative of the symptomatology seen in cancer patients represents a paradigm shift in that bacterial colonization, overgrowth, and/or invasion are a potentially curable or controllable source of a patient's discomfort. Furthermore, this represents a paradigm shift in that prior measures commonly used in the amelioration of such problems were supportive in nature, addressing the symptoms of these conditions and not the root cause itself. This permits greater targeting of the symptoms' cause and results in improved efficacy of symptom amelioration, while at the same time causing fewer adverse effects, as would be commonly seen with supportive measures such as traditional anti-diarrheals. […] Furthermore, it enables the physician to treat the cause of the symptoms in such a way that suboptimally effective supportive measures can not. This is seen in terms of greater targeting of therapy, fewer drug interactions, and improved tolerance to therapy. Particular benefit is seen with this therapy because it may prevent or ameliorate symptoms that would otherwise necessitate a break in treatment to allow the patient to recover from their symptoms. […]

CO[C@H]1/C=C/O[C@@]2(C)Oc3c(C)c(O)c4c(O)c(c5c(nc6cc(C)ccn65)c4c3C2=O)NC(=O)/C(C)=C\C=C\[C@H](C)[C@H](O)[C@@H](C)[C@@H](O)[C@@H](C)[C@H](OC(C)=O)[C@@H]1C [Rifaximin]
symptoms of radiation induced enteritis: reduces symptoms of the condition
